Assay results as given in patent US9511017B2, “Method and composition for use in preparation of a patient for surgery” (priority 2005, dated 2016).

Legend:
[1] = Transcutaneous penetration / comparative release of active ingredient in horizontal glass Franz-type diffusion cells; type: in vitro ADME; conditions: 2 hrs; 0.5 g sample; mean of duplicates
Source text: The transcutaneous penetration and comparative release of active ingredient were compared using a horizontal glass Franz-type diffusion cells such as are described in R. Danids, (Skin Care Forum, Issue 37, August 2004, Cognis); S. Jung, (The University of California Irvine Undergraduate Research Journal, p. 25-26, Vol V, 2002, University of California Irvine); Guideline for Industry Non-sterile Semisolid Dosage Forms (SUPAC-SS CMC7), May 1997, U.S. Department of Health and Human Services FDA CDER. A standard cellophane dialysis membrane of MW cut off 6-8000 was used for the diffusion studies. The Franz cell receiving solution was composed of 50% v/v methanol/water. Cellophane membranes were mounted horizontally in the Franz cells. 0.5 g of sample were used for each test. The cell receptor was continuously stirred magnetically and maintained at 35+/−2° C. At the designated time 150 microliters aliquots were sampled from the receiving vessel of the Franz cells. 20 microliters were injected into HLPC. […]
0.5 g samples of compositions according to examples 2, 3 and 4 were compared over periods of 2, 4 and 7 hours with a prior art composition comprising 5% chlorhexidine in 62% ethyl alcohol. […] Column C, D, and E give the results for the actives in the respective formulations, both in mg and as a % of the sample quantity tested.

[2] = test system: Pseudomonas aeruginosa ATTC 15442; conditions: triclosan alone, known; cited from earlier work

| chlorhexidine penetrated, % of the sample quantity tested [1] [%] | SMILES | triclosan penetrated, % of the sample quantity tested [1] [%] | effectiveness against Pseudomonas aeruginosa [2] |
| --- | --- | --- | --- |
| – | Oc1cc(Cl)ccc1Oc1ccc(Cl)cc1Cl [triclosan, 2,4,4-trichloro-2-hydroxy-diphenylether] | 0.24 | relatively ineffective |
| < 0.24 | [H]/N=C(\N/C(=N/[H])NCCCCCCNC(=N)NC(=N)Nc1ccc(Cl)cc1)Nc1ccc(Cl)cc1 [chlorhexidine] | – | – |
